Laboratory results: patent publication US4829073A, “Thiadiazole oxides for treating gastrointestinal motility disorders” (Bristol-Myers Company, priority 1988, dated 1989)
Read-outs that look alike come from different tables or passages of the source.

Experiments:
[1] = tested on: opossum lower esophageal sphincter (LES); test: Lower esophageal sphincter pressure in the anesthetized opossum; type: in vivo
From the text: This procedure measures the effect of the test compounds on the opossum lower esophageal sphincter (LES) which closely resembles the human sphincter. In order to test the effects of compounds on LES resting pressure, a small tube perfused with water at a constant flow rate is passed through the anesthetized opossum esophagus and water pressure in the tube is monitored. The method is similar to that described by R. Goyal et al., Gastroenterology, 71, 62-67 (1976). An increase in esophageal tone is measured as an increase in pressure and reported as a percent increase of the control determination. The compound of Example 1 was given as a single bolus dose of 10 mg/kg I.V. in four opossums.

[2] = tested on: serotonin receptors; test: Radioligand binding to membrane receptors: serotonin
Protocol: (§1) Radioligand binding studies to membrane receptors were carried out to assess the potential for interaction with other receptors. […] To assess any possible cardiovascular effects a bolus injection of the test compound at various doses was administered to anesthetized dogs. Thus, the compound of Example 1, at 5 mg/kg administered I.V., had no effect on heart rate or blood pressure in three anesthetized dogs.

[3] = tested on: benzodiazepine receptors; test: Radioligand binding to membrane receptors: benzodiazepine
Protocol: as §1

[4] = tested on: rat gastric emptying; test: In vivo small animal gastroprokinetic activity: rat gastric emptying; set-up: species or system male Sprague-Dawley rats; conditions: normal rats; for ED50: Rattus norvegicus
Protocol: IN VIVO SMALL ANIMAL GASTROPROKINETIC ACTIVITY The method used to assess rat gastric emptying is a modification of the procedures described by D. A. Droppleman et al., Journal of Pharmacological Methods, 4, 227-230 (1980). Test compounds (0.3 to 30 mg/kg in 1 ml/kg vehicle) are administered either orally or subcutaneously to male, Sprague-Dawley rats (160-180 g) that were fasted overnight. The test animals receive 2.5 ml of a freshly made milk plus ground rat chow meal by oral intubation, thirty or fifteen minutes following oral or subcutaneous administration, respectively. Rats are sacrificed 25 minutes following the test meal, and the stomachs are quickly excised. Each stomach containing the remaining meal is weighed intact on an analytical balance. To empty the contents before reweighing, each stomach is cut open, rinsed thoroughly and then blotted dry. The difference in weights indicates the amount of meal remaining in the stomach. The amount of meal retained is calculated as a percent of the total meal weight administered.

[5] = tested on: guinea pig ileum (longitudinal muscle); test: Electrically stimulated isolated guinea pig ileum; type: cell-based; conditions: Cavia porcellus
Protocol: (§2) Two classical pharmacological preparations, the field stimulated guinea pig ileum and field stimulated rat fundic strip, are utilized to assess gastroprokinetic activity in vitro.
A modification of the procedure described by W. D. M. Paton, J. Physiol. (Lond), 127, 40-41P (1955). Segments of the preterminal ileal tissue, 3-4 cm in length, are mounted in a 20 ml tissue bath. The tissues are perfused at 37° C. with a modified Krebs solution and continuously gassed with 95%O2 -5% CO2. The solution is prepared with millipore water and consists of (mM/L): NaCl 116, KCl 5, CaCl2 2.5, KH2 PO4 1.2, MgSO4.7H2 O 0.5, NaHCO3 25 and Glucose 11.1.
A force displacement transducer is attached to each tissue and the resting tension adjusted to 1.0 g. The tissues are allowed to equilibrate for one hour, with washes every twenty minutes, after the stimulator is engaged or until twitch height remains stable.
Dose response curves for test compounds are established by adding single doses of the material in increasing increments until a maximal effect is achieved. Compounds are administered at volumes ranging from 0.2 to 0.6 ml to give final bath concentrations of 0.1 μM thru 100 μM. The test materials remain in contact with the tissue for 2 to 3 minutes, until the peak effect is achieved, before thorough washing with Kreb's solution. […]

[6] = tested on: dopamine receptors; test: Radioligand binding to membrane receptors: dopamine
Protocol: as §1

[7] = tested on: calcium channel receptors; test: Radioligand binding to membrane receptors: calcium channel
Protocol: as §1

[8] = tested on: GABA receptors; test: Radioligand binding to membrane receptors: GABA
Protocol: as §1

[9] = tested on: rat fundic strip; test: Electrically stimulated isolated rat stomach fundus; type: cell-based
Protocol: as §2
The rat fundic strip is prepared according to the method described by J. R. Vane, Brit. J. Pharmacol., 12, 344-349 (1957). For this preparation, strips are made by removing the fundal end of the stomach and slitting it open to form a sheet. Small cuts are made transversing the longitudinal muscle to produce two strips 3-4 cm in length. The tissues are mounted in a 20 ml organ bath containing Kreb's solution at 37° C. and are oxygenated with 95% O2 -5% CO2. Resting tension is adjusted to 1.0 g. Contractions are recorded by means of a force displacement transducer and a Beckman Dynograph Type R.
Once a consistent response to electrical field stimulation is established, varying amounts of a test compound are added to the bath. All compounds are administered three minutes prior to electrical stimulation at volumes of 0.2 ml to 0.6 ml for final bath concentrations of 0.1 μM thru 100 μM. Each tissue is thoroughly washed between each dose. A dose response curve is achieved by measuring the effect of increasing dose levels of test materials on the tissue contraction due to electrical field stimulation.

[10] = tested on: circular smooth muscle contractile activity of the antral and duodenal portion of the stomach; test: Gastric contractile activity in the anesthetized dog; type: in vivo, Male Beagle Dogs; conditions: I.V. cumulative dosing 0.01 to 10 mg/kg
Protocol: The effect of test compounds on circular smooth muscle contractile activity of the antral and duodenal portion of the stomach are measured by strain gauge arches sewn on the serosal surface similar to the procedure described by […] et al., Digestion, 28, 205-209 (1983). Male Beagle Dogs, weighing 8 to 14 kg, are fasted overnight and then anesthetized with pentothal (thiopental sodium), 20 mg/kg and maintained with I.V. alpha-chloralose (100 mg/ml in PEG 400, diluted 1:1 with saline immediately before use) as needed, usually 100 mg/dose. The trachea is intubated for respiratory assistance if needed, and the right femoral artery and vein are cannulated to monitor blood pressure and administer I.V. solutions, respectively. The stomach and intestine are exposed by a midline incision, and a Walton-Brodie adjustable strain gauge arch is sewn on the ventral surface of the antrum of the stomach, 3-5 cm proximal to the pylorus. The arch is oriented to respond to contractions of the circular muscle, and the initial resting tension is set at 25 grams by adjusting the length of the arch. The preparation is allowed to stabilize for 1 to 2 hours. Fifteen minutes after observation of migrating motor complex phase III activity, test compounds are given every 10 minutes in a cumulative dosing manner beginning at 0.01 mg/kg to 10 mg/kg. The test compounds are dissolved in saline at concentrations that are dependent on the weight of each animal so that a constant volume will be administered at each dose level. […] The stomach contractions, the cumulative grams of tension developed by the stomach contractions, EKG, heart rate, blood pressure, and any additional contractile and/or electrical activities are recorded on a Beckman Dynograph. The results are expressed as the increased tension developed by the smooth muscles in response to the administration of test compound.

[11] = tested on: heart rate or blood pressure; test: Cardiovascular effects in anesthetized dogs; type: in vivo; conditions: 5 mg/kg I.V. bolus; three anesthetized dogs
Protocol: as §1

[12] = tested on: gastric emptying of a solid meal; test: Gastric emptying of solid meal in conscious dogs; type: in vivo, beagle dogs; conditions: for gastric half emptying time (T1/2) of a solid meal: control 208 ± 34, *P < .05; for half emptying time (t1/2) of a solid meal, in words: orally, conscious dogs
Protocol: Under aseptic conditions 10 beagle dogs were implanted with T-shaped titanium duodenal cannulas. The dogs were allowed to recover from surgery for 3 weeks. Each dog before the test was fasted for 16-18 hours. Water was provided ad lib. On the day of the test, the duodenal cannula was opened and the stomach contents were drained. The cannula was closed again and the dog was dosed orally with either placebo (10cc saline) or with test compound in 10cc saline. […] The dry weight of this food is 36 grams. After the dog had ingested the food the cannula was opened and an insert was placed in the cannula which drained the chyme through the cannula into a beaker. This collection was continued for 5 hours and samples were collected every thirty minutes. The chyme was filtered and dried in an oven. The dry weight collected every thirty minutes was deducted from the dry weight of the food left in the stomach. A time response curve of gastric emptying was developed and t1/2, the time taken to empty 50% of the solid meal from the stomach was determined. The t1/2 for the test compound at various doses was compared with controls. Significance of differences was determined using paired t-test.

[13] = 1.0 mg/kg P.O. (N = 3), 60 minutes before meal
[14] = 3.0 mg/kg P.O. (N = 3), 60 minutes before meal

Nc1n[s+]([O-])nc1NCCSCc1ccc(CN2CCCCC2)o1 (stereo not shown) [Example 1, 3-Amino-4-{2-[(5-piperidinomethyl-2-furyl)methylthio]ethylamino}-1,2,5-thiadiazole 1-oxide]
increase in LES pressure ([1]; 10 mg/kg I.V. single bolus, four opossums, percent increase of the control determination): 33%
inhibition of LES pressure following the initial increase ([1]; I.V., higher doses than 10 mg/kg): no inhibition of LES pressure following the initial increase was observed
binding to serotonin receptors [2]: does not bind
binding to benzodiazepine receptors [3]: does not bind
ED50 ([4]; sc, subcutaneous, 15 min before test meal, read-out: subcutaneous ED50 value, stomach emptying): 0.4 mg/kg
ED50 ([4]; oral, 30 min before test meal, read-out: oral ED50 value, stomach emptying): 2.9 mg/kg
maximum response over control values, stomach emptying ([4]; oral): 95±19%
maximum response over control values, stomach emptying ([4]; subcutaneous): 105±6%
EC50 ([5]; 95% confidence limits of 84-1629, bath concentrations 0.1 μM thru 100 μM, 37° C., read-out: computer projected EC50 value): 224 µM
Emax ([5]; read-out: increase in contractile amplitude, maximal response over control): 37 ± 4.8%
binding to dopamine receptors [6]: does not bind
binding to calcium channel receptors [7]: does not bind
binding to GABA receptors [8]: does not bind
EC50 ([9]; bath concentrations 0.1 μM thru 100 μM, 37° C., 95% confidence limits in parentheses): 8.2 µM
Emax ([9]; read-out: increase in contractile force, maximal response over control): 82 ± 10%
ED50 ([10]; Canis lupus familiaris, iv, 50% of approx. 20 grams mean maximal response, read-out: ED50 value (dose necessary to achieve 10 grams of tension)): 0.24 mg/kg
duodenal tension [10]: increased the duodenal tension dose dependently
maximal response of developed tension [10]: 24±5 grams
effect on blood pressure [11]: no effect
effect on heart rate [11]: no effect
gastric half emptying time (T1/2) of a solid meal ([12]; 0.1 mg/kg P.O. (N = 3), 60 minutes before meal): 3.4 ± 0.533 h
gastric half emptying time (T1/2) of a solid meal [12, 13]: 1.6 ± 0.233 h
gastric half emptying time (T1/2) of a solid meal [12, 14]: 1.63 ± 0.267 h
half emptying time (t1/2) of a solid meal, in words ([12]; 1.0 mg/kg): significantly decreased

NC1=NS(=O)(=O)N=C1NCCSCc1ccc(CN2CCCCC2)o1 [Example 2]
gastric half emptying time (T1/2) of a solid meal [12, 13]: 1.83 ± 0.3 h
half emptying time (t1/2) of a solid meal, in words ([12]; 1.0 mg/kg): significantly decreased

CNC(=C[N+](=O)[O-])NCCSCc1ccc(CN(C)C)o1 [Ranitidine, ranitidine, reference compound]
gastric half emptying time (T1/2) of a solid meal [12, 13]: 3.43 ± 0.517 h
gastric half emptying time (T1/2) of a solid meal [12, 14]: 3.43 ± 0.4 h
half emptying time (t1/2) of a solid meal, in words ([12]; at the tested doses (1.0 and 3.0 mg/kg)): ineffective

CCN(CC)CCNC(=O)c1cc(Cl)c(N)cc1OC [Metoclopramide, metoclopramide, reference compound]
gastric half emptying time (T1/2) of a solid meal ([12]; 0.1 mg/kg P.O. (N = 3), 30 min before meal): 2 ± 0.35 h
gastric half emptying time (T1/2) of a solid meal ([12]; 1.0 mg/kg P.O. (N = 3), 30 min before meal): 3.3 ± 0.233 h
